Converted amounts (≈) assume the structure as drawn. Read-outs that look alike come from different tables or passages of the source. Non-standard residues stand in square brackets, D forms with d. Residues, ends and D or L forms follow the SMILES beside them. No end group written: not given here.
What was measured:
S. pneumoniae C719 = test: Antimicrobial assays II, NCCLS broth microdilution MIC; assay type: cell-based, Streptococcus pneumoniae; settings: mean of three, in µg/mL
S. pneumoniae C718 = test: as above; assay type: cell-based, Streptococcus pneumoniae; settings: mean of three
P. acne ATCC 6919 = test: as above; assay type: cell-based, Propionibacterium acnes; settings: mean of three, in µg/mL
[1] = test system: Staphylococcus aureus ATCC 6538; test: Antimicrobial assay I, MIC by OD measurement; assay type: cell-based; settings: 37° C. for 24 hours, absorbance 620 nm
[2] = test system: Pseudomonas aeruginosa ATCC 9027; test: Antimicrobial assay I, MIC by OD measurement; assay type: cell-based; settings: 37° C. for 24 hours, absorbance 620 nm
S. epidermidis C621 = assay type: cell-based, Staphylococcus epidermidis; settings: mean of three; 16 to 20 hours at 35° C.
S. aureus (MRSA) = assay type: cell-based, Staphylococcus aureus; settings: mean of three; 16 to 20 hours at 35° C.
S. pyogenes ATCC19615 = test: Antimicrobial assays II, NCCLS broth microdilution MIC; assay type: cell-based, Streptococcus pyogenes; settings: mean of three, in µg/mL
SW480 = test: Anti-cancer assay, MTT, LD50; assay type: cell-based; settings: SW480 colon adenocarcinoma line, 24 hours with peptide
Source text: (§1) Numbers are LD50 values (μg/mL).

HeLaS3 = test: Anti-cancer assay, MTT, LD50; assay type: cell-based; settings: 24 hours with peptide, cervical carcinoma
Source text: as §1

BMKC = test: Anti-cancer assay, MTT, LD50; assay type: cell-based; settings: BMKC cloned melanoma line, 24 hours with peptide
Source text: as §1

MCF7 = test: Anti-cancer assay, MTT, LD50; assay type: cell-based; settings: MCF7 breast adenocarcinoma line, MTT, 24 hours with peptide
Source text: as §1

PC3 = test: Anti-cancer assay, MTT, LD50; assay type: cell-based; settings: 24 hours with peptide, prostate adenocarcinoma
Source text: as §1

H1299 = test: Anti-cancer assay, MTT, LD50; assay type: cell-based; settings: 24 hours with peptide, lung large cell carcinoma
Source text: as §1

P. aeruginosa H774 = assay type: cell-based, Pseudomonas aeruginosa; set-up: key to FIC Index: FIC = 0.25 + MIC antibiotic in combination / MIC alone; ≤0.5 = synergy; settings: P. aeruginosa H744; nalidixic acid + peptide at ¼ MIC; 0.5 or less = synergy
Outline: (§2)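 Efflux-mutant strains were tested with two-fold serial dilutions of chloramphenicol or nalidixic acid, alone and with peptide held at ¼ of its own MIC.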

P. aeruginosa H374 = assay type: cell-based, Pseudomonas aeruginosa; set-up: key to FIC Index: FIC = 0.25 + MIC antibiotic in combination / MIC alone; ≤0.5 = synergy; settings: for MIC Cm-comb.: MIC of chloramphenicol with peptide at ¼ MIC; for MIC Nal-comb.: MIC of nalidixic acid with peptide at ¼ MIC; for FIC Index: 0.5 or less = synergy
Outline: as §2

P. aeruginosa = assay type: cell-based, Pseudomonas aeruginosa; set-up: key to FIC Index: FIC = 0.25 + MIC antibiotic in combination / MIC alone; ≤0.5 = synergy; settings: P. aeruginosa H744; MIC of nalidixic acid with peptide at ¼ MIC
Outline: as §2

S. pyogenes M76 = test: Antimicrobial assays II, NCCLS broth microdilution MIC; assay type: cell-based, Streptococcus pyogenes; settings: mean of three; 16 to 20 hours at 35° C.
[3] = test system: yeast (Saccharomyces cerevisiae); test: Antimicrobial assay I, yeast assay in RPMI 1640; assay type: cell-based; settings: RPMI 1640 media
WI38 = settings: MTT, 24 hours with peptide; normal fibroblast line
in vitro [4] = assay type: cell-based, human; settings: human, human red blood cells, pH 7, hemolytic assay, concentration at 50% hemolysis, 1 hour at 37° C.; read-out: LD50
in vitro [5] = settings: human, WI38 normal lung fibroblast cells, LD50 WI38, WI38 normal lung fibroblast line, MTT, 24 hours with peptide
[6] = chloramphenicol + peptide at ¼ MIC
[7] = nalidixic acid + peptide at ¼ MIC, FIC=0.25+MIC comb/MIC alone

Compound	S. pneumoniae MIC (S. pneumoniae C719)	S. pneumoniae MIC (S. pneumoniae C718) [µg/mL]	P. acne MIC (P. acne ATCC 6919)	staph6538 (MIC) [1]	paerug9027 (MIC) [2]	S. epidermidis C621 MIC (S. epidermidis C621) [µg/mL]	S. aureus (MRSA) MIC (S. aureus (MRSA)) [µg/mL]	S. pyogenes MIC (S. pyogenes ATCC19615)	LD50 BMKC (BMKC) [µg/mL]	LD50 MCF7 (MCF7) [µg/mL]	PC3 LD50 (PC3) [µg/mL]	H1299 LD50 (H1299) [µg/mL]	FIC Index (P. aeruginosa H774)	MIC Cm-comb. (P. aeruginosa H374) [µg/mL]	MIC Nal-comb. (P. aeruginosa H374) [µg/mL]	FIC Index (P. aeruginosa H374; [6])	FIC Index (P. aeruginosa H374; [7])	MIC Nal-comb. (P. aeruginosa) [µg/mL]	S. pyogenes M76 MIC (S. pyogenes M76) [µg/mL]	yeast (MIC or MFC) [3]	also measured
VAKKLAKLAKKLAKLAL-NH2 [P50]	16	32	4	5 µg/mL	15 µg/mL	4	4	4	40	32	54	7	1.25	16	5000	1.25	1.25	624	8	50 µg/mL	LD50 SW480 (SW480): 46 µg/mL; HeLaS3 LD50 (HeLaS3): 33 µg/mL
FALAKLAKKAKAKLKKALKAL-NH2 [P26]	16	> 128	4	10 µg/mL	15 µg/mL	4	32	4	94	74	125	84	1.25	8	2500	0.75	0.75	624	4	> (> indicates greater than 200 μg/mL)	WI38 LD50 (WI38): 96 µg/mL; HC50 at 1 h (in vitro [4]): 90 µg/mL; LD50 SW480 (SW480): 8 µg/mL; HeLaS3 LD50 (HeLaS3): 150 µg/mL; CC50 at 24 h (in vitro [5]): 96 µg/mL
FAKKLAKLALKLAKL-NH2 [P44]	16	8	4	5 µg/mL	5 µg/mL	4	8	4	47	140	45	72	1.25	16	5000	1.25	1.25	624	4	50 µg/mL	WI38 LD50 (WI38): 36 µg/mL; HC50 at 1 h (in vitro [4]): 90 µg/mL; LD50 SW480 (SW480): 32 µg/mL; HeLaS3 LD50 (HeLaS3): 22 µg/mL; CC50 at 24 h (in vitro [5]): 36 µg/mL
FALALKKALKALKKAL-NH2 [P34]	8	8	8	5 µg/mL	50 µg/mL	8	16	4	53	21	9	24	1.25	16	2500	1.25	0.75	624	4	25 µg/mL	WI38 LD50 (WI38): 40 µg/mL; HC50 at 1 h (in vitro [4]): 200 µg/mL; LD50 SW480 (SW480): 35 µg/mL; HeLaS3 LD50 (HeLaS3): 62 µg/mL; CC50 at 24 h (in vitro [5]): 40 µg/mL
KYKKALKKLAKLL-NH2 [P146]	128	> 128	16	10 µg/mL	10 µg/mL	8	16	8	185	110	440	93	1.25	4	625	0.5	0.375	624	8	50 µg/mL	WI38 LD50 (WI38): 270 µg/mL; HC50 at 1 h (in vitro [4]): 180 µg/mL; LD50 SW480 (SW480): 380 µg/mL; HeLaS3 LD50 (HeLaS3): 640 µg/mL; CC50 at 24 h (in vitro [5]): 270 µg/mL
FAKKLAKKLL-NH2 [P59]	4	16	2	> (> indicates greater than 200 μg/mL)	> (> indicates greater than 200 μg/mL)	8	8	2	155	31	81	180	1.25	8	2500	0.75	0.75	624	2	> (> indicates greater than 200 μg/mL)	WI38 LD50 (WI38): 77 µg/mL; HC50 at 1 h (in vitro [4]): 1000 µg/mL; LD50 SW480 (SW480): 42 µg/mL; CC50 at 24 h (in vitro [5]): 77 µg/mL
FAKALKALLKALKAL-NH2 [P64]	2	8	2	5 µg/mL	> (> indicates greater than 200 μg/mL)	4	8	4	35	80	46	30	1.25	16	5000	1.25	1.25	624	4	200 µg/mL	HeLaS3 LD50 (HeLaS3): 30 µg/mL
CC(C)C[C@H](NC(=O)[C@H](C)NC(=O)[C@H](CCCCN)NC(=O)[C@H](CCCCN)NC(=O)[C@H](CC(C)C)NC(=O)[C@H](C)NC(=O)[C@H](CCCCN)NC(=O)[C@H](CCCCN)NC(=O)[C@H](CC(C)C)NC(=O)[C@@H](CCCCN)NC(=O)[C@@H](CCCCN)NC(=O)[C@H](CC(C)C)NC(=O)[C@H](C)NC(=O)[C@H](CCCCN)NC(=O)[C@H](CCCCN)NC(=O)[C@H](CC(C)C)NC(=O)[C@H](C)NC(=O)[C@H](CCCCN)NC(=O)[C@H](CC(C)C)NC(=O)[C@H](C)NC(=O)[C@H](CC(C)C)NC(=O)[C@H](C)NC(=O)[C@@H](N)Cc1ccccc1)C(=O)O [P37, FALALKALKKAL-(D)-K-(D)-KLKKALKKAL-COOH] (H-FALALKALKKAL[dK][dK]LKKALKKAL-OH; N-terminus assumed)	16	64	4	5 µg/mL	100 µg/mL	4	8	8	150	14	64	150	1.25	4	2500	0.5	0.75	624	8	50 µg/mL	WI38 LD50 (WI38): 80 µg/mL; HC50 at 1 h (in vitro [4]): 30 µg/mL; LD50 SW480 (SW480): 57 µg/mL; CC50 at 24 h (in vitro [5]): 80 µg/mL (≈ 31.5 µM)
